Like-named read-outs stand apart in the source and are kept apart here.
Key:
Fusarium proliferatum = test: Example I: production of fumonisin FB1 by Fusarium proliferatum (microtitre plates); type: cell-based; conditions: 120 h
Fusarium graminearum [1] = test: microbe, parasite or virus in culture; type: cell-based
Aspergillus parasiticus = test: microbe, parasite or virus in culture; type: cell-based; conditions: 168 h
Sphaerotheca fuliginea = test: Example L: in vivo test on Sphaerotheca fuliginea (powdery mildew on cucumber/protective); conditions: Podosphaera fuliginea, 168 h, cucumber, protective, assessment 7 days after inoculation, read-out: % Wirkungsgrad
In short: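 Young cucumber plants sprayed at stated dosage with compound in DMF/alkylaryl polyglycol ether emulsifier diluted in water; inoculated with S. fuliginea spores one day later. Kept in greenhouse at 70% relative humidity, 23° C; protective activity assessed 7 days after inoculation.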

Alternaria solani = test: Example M: in vivo test on Alternaria solani (leaf blotch disease/tomato/protective); conditions: 168 h, tomato, protective, 500 ppm active substance, assessed 7 days after inoculation, read-out: % Wirkungsgrad (activity level)
In short: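 Protective test: young tomato plants sprayed with active substance (in DMF with alkylaryl polyglycol ether emulsifier, diluted in water) at the stated dosage, then inoculated with Alternaria solani. Disease assessed 7 days after inoculation.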

Botrytis cinerea [2] = test: Example P: in vivo test on Botrytis cinerea (gray mould on bean/protective); conditions: 48 h, bean, protective, 250 ppm active substance, assessed 2 days after inoculation, read-out: % Wirkungsgrad (activity level)
In short: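 Protective test: young bean plants sprayed with the active substance preparation (emulsifier-based concentrate diluted in water) at the stated dosage. Once dry, each leaf received 2 agar pieces bearing Botrytis cinerea. Infection blotch size assessed 2 days after inoculation.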

Fusarium graminearum [3] = test: whole plant or invertebrate; type: in vivo; conditions: in Hordeum vulgare, 120 h, read-out: % Wirkungsgrad (activity level)
Botrytis cinerea [4] = test: Example B: in vivo test on Botrytis cinerea (grey mould on cucumbers); conditions: cucumber plants sprayed 24 hours before inoculation, scored after 5-7 days, read-out: % Wirkungsgrad
Protocol: In Vivo Test on Botrytis Cinerea (Grey Mould on Cucumbers) An aqueous suspension of the active substance was prepared by homogenization of a mixture of acetone/Tween/dimethyl sulphoxide and subsequent dilution with water to the desired concentration. Cucumber plants (variety: Vert petit de Paris) are sown in cultivation dishes on a peat-pozzolanic earth substrate (50/50) at 18-20° C. and sprayed at the cotyledon stage Z11 with the aqueous suspension described above. As a control, plants are sprayed with an aqueous solution with no active substance. […] The spores are derived from a 15 day-old culture which are suspended in the following nutrient solution: • 20 g/l gelatine • 50 g/l D-fructose • 2 g/l NH4NO3 • 1 g/l KH2PO4 The inoculated cucumber plants are kept for 5-7 days in a climatic chamber at […] After 5-7 days they are scored in comparison with the control plants.

[5] = system: Mycosphaerella graminicola; test: Example G: in vivo test on Mycosphaerella graminicola (wheat leaf blotch disease); conditions: Zymoseptoria tritici, wheat plants sprayed 24 hours before inoculation, scored after 21 to 28 days, read-out: % Wirkungsgrad
Protocol: In Vivo Test on Mycosphaerella Graminicola (Wheat Leaf Blotch Disease) An aqueous suspension of the active substance was prepared by homogenization of a mixture of acetone/Tween/dimethyl sulphoxide and subsequent dilution with water to the desired concentration. Wheat plants (variety: Scipion) are sown in cultivation dishes on a peat-pozzolanic earth substrate (50/50) at 12° C. and sprayed at the first-leaf stage (10 cm size) with the aqueous suspension described above. As a control, plants are sprayed with an aqueous solution with no active substance. After 24 hours the plants are inoculated by spraying with an aqueous suspension of Mycosphaerella graminicola spores (500,000 spores per ml). The spores are derived from a 7 day-old culture. […] After 21 to 28 days they are scored in comparison with the control plants.

Venturia inaequalis = test: Example O: in vivo test on Venturia inaequalis (apple scab/protective); conditions: 240 h, protective, assessment 10 days after inoculation, read-out: % Wirkungsgrad
In short: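 Protective test: active substance mixed with solvent and alkylaryl polyglycol ether emulsifier, diluted with water, and sprayed on young plants at the stated dosage before Venturia inaequalis inoculation. Scab assessed 10 days after inoculation.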

Septoria tritici = test: Example R: in vivo test on Septoria tritici (leaf blotch in wheat/protective); conditions: Zymoseptoria tritici, 504 h, wheat, protective, 1000 ppm active substance, assessed 21 days after inoculation, read-out: % Wirkungsgrad (activity level)
Protocol: Solvent: 49 parts by weight N,N-dimethylacetamide Emulsifier: 1 part by weight alkylaryl polyglycol ethers For the preparation of a suitable active substance preparation, 1 part by weight of active substance is mixed with the stated quantities of solvent and emulsifier and the concentrate is diluted to the desired concentration with water. For the testing for protective activity, young plants are sprayed with the active substance preparation at the stated application dosage. After drying of the spray coating, the plants are sprayed with a spore suspension of Septoria tritici. […] 21 days after the inoculation, the assessment takes place.

[6] = system: Fusarium nivale (var. majus); test: whole plant or invertebrate; type: in vivo; conditions: Microdochium nivale, in Triticum aestivum, 120 h, read-out: % Wirkungsgrad (activity level)
Plasmopara viticola = test: Example N: in vivo test on Plasmopara viticola (downy mildew, vine/protective); conditions: 144 h, vine, protective, assessment 6 days after inoculation, read-out: % Wirkungsgrad
Protocol: Emulsifier: 1 part by weight alkylaryl polyglycol ethers For the preparation of a suitable active substance preparation, 1 part by weight of active substance is mixed with the stated quantities of solvent and emulsifier and the concentrate is diluted to the desired concentration with water. For the testing for protective activity, young plants are sprayed with the active substance preparation at the stated application dosage. […] The plants are then moistened and placed in an incubation cabin for 1 day. 6 days after the inoculation, the assessment takes place.

[7] = Fusarium proliferatum growth, OD 620, 5 days, read-out: % Inhibition des Pilzwachstums bei 50 μM
[8] = Fusarium proliferatum, 5 days at 20° C., HPLC-MS/MS, read-out: % Inhibition der FB1 produktion bei 50 μM
[9] = 72 h, read-out: % Inhibition des Pilzwachstums bei 50 μM
[10] = 168 h, read-out: % Inhibition der DON/AcDON produktion bei 50 μM
[11] = 50 μM, 7 days at 20° C., read-out: Inhibition der Aflatoxin produktion bei 50 μM
[12] = read-out: % Inhibition des Pilzwachstums bei 50 μM
[13] = LogPA (logP of the stated pure compound or, in a mixture, of the main isomer, 1-substituted 3-aryl-1H-pyrazole)

SMILES | inhibition at 50 µM (Fusarium proliferatum; [7]) | inhibition at 50 µM (Fusarium proliferatum; [8]) | inhibition at 50 µM (Fusarium graminearum [1]; [9]) | inhibition at 50 µM (Fusarium graminearum [1]; [10]) | inhibition at 50 µM (Aspergillus parasiticus; [11]) | inhibition at 50 µM (Aspergillus parasiticus; [12]) | pest or weed control at 500 ppm (Sphaerotheca fuliginea) | pest or weed control at 500 ppm (Alternaria solani) | pest or weed control at 250 ppm (Botrytis cinerea [2]) | pest or weed control at 1000 ppm (Fusarium graminearum [3]) | chromatographic logP (physchem; [13]) | pest or weed control at 500 ppm (Botrytis cinerea [4]) | pest or weed control at 500 ppm [5] | pest or weed control at 100 ppm (Venturia inaequalis) | pest or weed control at 1000 ppm (Septoria tritici) | pest or weed control at 1000 ppm [6] | pest or weed control at 100 ppm (Plasmopara viticola) | chromatographic logP (physchem; LogPA)
CCC(=O)Nc1cc(-c2cn(CC(C)C)nc2-c2ccc(F)cc2)ccn1 [Compound 155] | 97% | 100% | 97% | 100% | 100% | 100% | 95% | 100% | 99% | 88% | 2.51 | – | – | – | – | – | – | –
Fc1cccc(F)c1-c1nn(C2CCC2)cc1-c1ccncc1 [Compound 8] | – | – | – | – | – | – | – | – | – | – | 1.56 | 94% | 92% | – | – | – | – | –
CCC(C)n1cc(-c2ccnc(NC(=O)CC3CC3)c2)c(-c2ccc(F)cc2)n1 (stereo not shown) [Compound 159] | – | – | 102% | 99% | – | – | 97% | 94% | 98% | 100% | 3 | – | – | 97% | 100% | 75% | – | –
CC(C)CC(=O)Nc1cc(-c2cn(CC(F)F)nc2-c2ccc(F)cc2)ccn1 [Compound 238] | – | – | – | – | – | – | 100% | 94% | 93% | 92% | – | – | – | 98% | – | 75% | 88% | 2.63
O=C(Nc1cc(-c2cn(CC(F)F)nc2-c2ccc(F)cc2)ccn1)C1CCC1 [Compound 240] | – | – | – | – | – | – | 96% | 88% | 99% | – | – | – | – | 96% | 75% | 75% | 90% | 2.42
O=C(Nc1cc(-c2cn(CC3CC3)nc2-c2ccc(F)cc2)ccn1)C1CC1 [Compound 224] | 99% | 100% | 100% | 92% | – | – | 99% | 70% | 99% | 100% | – | – | – | 71% | 100% | 100% | – | 2.29
N#CCCn1cc(-c2ccncc2)c(-c2ccc(F)cc2)n1 [Compound 146] | 41% | 100% | 97% | 100% | 100% | 99% | 95% | 100% | – | – | 0.81 | – | – | – | – | – | – | –

Reference: patent US20110183978A1, “Phenylpyri(mi)dinylazoles” (Bayer CropScience AG, priority 2009, published 2011)
